Tested on: MV-4-11 cells
Assay: Gene expression microarray analysis (Affymetrix PrimeView) and GSEA
Assay type: cell-based, human
Parameters: RFU PODN (11730768_x_at) / Fold change /veh PODN (11730768_x_at) / RFU LINC00158 (11744669_a_at) / Fold change /veh LINC00158 (11744669_a_at) / RFU DUSP10 (11751237_a_at) / Fold change /veh DUSP10 (11751237_a_at) / RFU ID3 (11757404_x_at) / Fold change /veh ID3 (11757404_x_at) / RFU PLEKHG5 (11737974_s_at) / Fold change /veh PLEKHG5 (11737974_s_at) / RFU LRRC4B (11730491_at) / Fold change /veh LRRC4B (11730491_at) / RFU GIMAP4 (11747438_a_at) / Fold change /veh GIMAP4 (11747438_a_at) / RFU KRT8 (11758183_x_at) / Fold change /veh KRT8 (11758183_x_at) / RFU CNN1 (11734310_a_at) / Fold change /veh CNN1 (11734310_a_at) / RFU VPS37D (11726825_at) / Fold change /veh VPS37D (11726825_at) / RFU C10orf10 (11716522_x_at) / Fold change /veh C10orf10 (11716522_x_at) / RFU KIR2DL2 /// KIR2DL4 /// KIR2DL5A /// KIR2DL5B /// KIR2DS1 /// KIR2DS2 /// KIR2DS3 /// KIR2DS4 /// KIR3DL3 /// KIR3DL3 /// KIR3DS1 (11738374_at) / Fold change /veh KIR2DL2 /// KIR2DL4 /// KIR2DL5A /// KIR2DL5B /// KIR2DS1 /// KIR2DS2 /// KIR2DS3 /// KIR2DS4 /// KIR3DL3 /// KIR3DL3 /// KIR3DS1 (11738374_at) / RFU C1QL1 (11718748_at) / Fold change /veh C1QL1 (11718748_at) / RFU TMPRSS4 (11747572_a_at) / Fold change /veh TMPRSS4 (11747572_a_at) / RFU HAMP (11756126_x_at) / Fold change /veh HAMP (11756126_x_at) / RFU RNFT2 (11725882_a_at) / Fold change /veh RNFT2 (11725882_a_at) / RFU NR4A2 (11747474_a_at) / Fold change /veh NR4A2 (11747474_a_at) / RFU ABCC12 (11746883_a_at) / Fold change /veh ABCC12 (11746883_a_at) / RFU TMEM136 (11760407_x_at) / Fold change /veh TMEM136 (11760407_x_at) / RFU CLDN22 /// WWC2 (11732394_at) / Fold change /veh CLDN22 /// WWC2 (11732394_at) / RFU HLA-DPB1 (11760878_x_at) / Fold change /veh HLA-DPB1 (11760878_x_at) / RFU SPINT1 (11716480_a_at) / Fold change /veh SPINT1 (11716480_a_at) / RFU GAP43 (11754022_s_at) / Fold change /veh GAP43 (11754022_s_at) / RFU A4GNT (11735810_at) / Fold change /veh A4GNT (11735810_at) / RFU PRB3 (11715151_x_at) / Fold change /veh PRB3 (11715151_x_at) / RFU TUBB4B (11761932_at) / Fold change /veh TUBB4B (11761932_at) / RFU CAPN14 (11732068_a_at) / Fold change /veh CAPN14 (11732068_a_at) / RFU TMCC2 (11721928_a_at) / Fold change /veh TMCC2 (11721928_a_at) / RFU IRGQ (11745062_a_at) / Fold change /veh IRGQ (11745062_a_at) / RFU FAM174B (11720279_a_at) / Fold change /veh FAM174B (11720279_a_at) / RFU TMPRSS4 (11748680_a_at) / Fold change /veh TMPRSS4 (11748680_a_at) / RFU FAM212B (11763350_a_at) / Fold change /veh FAM212B (11763350_a_at) / RFU PLEKHG5 (11743358_a_at) / Fold change /veh PLEKHG5 (11743358_a_at) / RFU ZSCAN30 (11745921_a_at) / Fold change /veh ZSCAN30 (11745921_a_at) / RFU CMKLR1 (11741424_a_at) / Fold change /veh CMKLR1 (11741424_a_at) / RFU LOC101060620 /// MAPK8IP1 (11723275_at) / Fold change /veh LOC101060620 /// MAPK8IP1 (11723275_at) / RFU SPTSSB (11747773_x_at) / Fold change /veh SPTSSB (11747773_x_at) / RFU PRSS12 (11739890_at) / Fold change /veh PRSS12 (11739890_at) / RFU BIN1 (11741810_x_at) / Fold change /veh BIN1 (11741810_x_at) / RFU WNT11 (11732464_a_at) / Fold change /veh WNT11 (11732464_a_at) / RFU C10orf10 (11716521_a_at) / Fold change /veh C10orf10 (11716521_a_at) / RFU C5orf56 (11738089_at) / Fold change /veh C5orf56 (11738089_at) / RFU CYB561 (11721691_x_at) / Fold change /veh CYB561 (11721691_x_at) / RFU ANKRD19P (11752326_a_at) / Fold change /veh ANKRD19P (11752326_a_at) / RFU OR2T12 /// OR2T33 /// OR2T8 (11738714_s_at) / Fold change /veh OR2T12 /// OR2T33 /// OR2T8 (11738714_s_at) / RFU VCAN (11748164_a_at) / Fold change /veh VCAN (11748164_a_at) / RFU JSRP1 (11732532_at) / Fold change /veh JSRP1 (11732532_at) / RFU KRTAP10-11 (11738290_x_at) / Fold change /veh KRTAP10-11 (11738290_x_at) / RFU MYO3A (11730013_a_at) / Fold change /veh MYO3A (11730013_a_at) / RFU EBF3 (11725865_a_at) / Fold change /veh EBF3 (11725865_a_at) / RFU CAMK2N1 (11719241_x_at) / Fold change /veh CAMK2N1 (11719241_x_at) / RFU C5orf56 (11738088_a_at) / Fold change /veh C5orf56 (11738088_a_at) / RFU OLFML3 (11715873_a_at) / Fold change /veh OLFML3 (11715873_a_at) / RFU LOC100653217 /// NTM (11731650_a_at) / Fold change /veh LOC100653217 /// NTM (11731650_a_at) / RFU MAPK11 (11762145_a_at) / Fold change /veh MAPK11 (11762145_a_at) / RFU FIZ1 (11724087_x_at) / Fold change /veh FIZ1 (11724087_x_at) / RFU OASL (11726364_x_at) / Fold change /veh OASL (11726364_x_at) / RFU SOX15 (11748057_x_at) / Fold change /veh SOX15 (11748057_x_at) / RFU CD79A (11719716_a_at) / Fold change /veh CD79A (11719716_a_at) / RFU HIST1H1D (11736915_at) / Fold change /veh HIST1H1D (11736915_at) / RFU CASKIN2 (11723855_a_at) / Fold change /veh CASKIN2 (11723855_a_at) / RFU LOC730098 (11760151_x_at) / Fold change /veh LOC730098 (11760151_x_at) / RFU OR4N2 (11742367_at) / Fold change /veh OR4N2 (11742367_at) / RFU PRRT2 (11749266_a_at) / Fold change /veh PRRT2 (11749266_a_at) / RFU SNX32 (11753110_a_at) / Fold change /veh SNX32 (11753110_a_at) / RFU CDHR5 (11726645_a_at) / Fold change /veh CDHR5 (11726645_a_at) / RFU RCAN1 (11760418_a_at) / Fold change /veh RCAN1 (11760418_a_at) / RFU FAM167A (11723789_a_at) / Fold change /veh FAM167A (11723789_a_at) / RFU FAM26E (11764081_at) / Fold change /veh FAM26E (11764081_at) / RFU ISYNA1 (11749810_s_at) / Fold change /veh ISYNA1 (11749810_s_at) / RFU ACY1 (11761880_at) / Fold change /veh ACY1 (11761880_at) / RFU 11764098_at / Fold change /veh 11764098_at / RFU SAMD14 (11745864_x_at) / Fold change /veh SAMD14 (11745864_x_at) / RFU NPB (11741838_a_at) / Fold change /veh NPB (11741838_a_at) / RFU TMPRSS6 (11731388_a_at) / Fold change /veh TMPRSS6 (11731388_a_at) / RFU KRTAP10-2 (11738614_at) / Fold change /veh KRTAP10-2 (11738614_at) / RFU ARHGAP8 /// PRR5-ARHGAP8 (11727945_x_at) / Fold change /veh ARHGAP8 /// PRR5-ARHGAP8 (11727945_x_at) / RFU KRTAP5-7 /// NADSYN1 (11734609_at) / Fold change /veh KRTAP5-7 /// NADSYN1 (11734609_at) / RFU RASL12 (11751679_a_at) / Fold change /veh RASL12 (11751679_a_at) / RFU CDKN2B (11736163_a_at) / Fold change /veh CDKN2B (11736163_a_at) / RFU PRF1 (11729649_at) / Fold change /veh PRF1 (11729649_at) / RFU, ZNF638 /// ZNF638-IT1 / Fold change vs veh, ZNF638 /// ZNF638-IT1 / RFU, PANK3 / Fold change vs veh, PANK3 / RFU, SH3YL1 / Fold change vs veh, SH3YL1 / RFU, ZEB2 / Fold change vs veh, ZEB2 / RFU, NRIP1 / Fold change vs veh, NRIP1 / RFU, PTTG1IP / Fold change vs veh, PTTG1IP / RFU, CAPN2 / Fold change vs veh, CAPN2 / RFU, MED14 / Fold change vs veh, MED14 / RFU, SNORA58 / Fold change vs veh, SNORA58 / RFU, C1orf63 / Fold change vs veh, C1orf63 / RFU, LRRFIP1 / Fold change vs veh, LRRFIP1 / RFU, NDUFAF7 / Fold change vs veh, NDUFAF7 / RFU, SLC12A2 / Fold change vs veh, SLC12A2 / RFU, IBTK / Fold change vs veh, IBTK / RFU, ESF1 / Fold change vs veh, ESF1 / Fold change vs veh, TMEM50B / RFU, TAOK1 / Fold change vs veh, TAOK1 / RFU, ACBD3 / Fold change vs veh, ACBD3 / RFU, TMA16 / Fold change vs veh, TMA16 / RFU, RWDD3 / Fold change vs veh, RWDD3 / RFU, BCAT1 / Fold change vs veh, BCAT1 / RFU, EDEM3 / Fold change vs veh, EDEM3 / RFU, TMEM33 / Fold change vs veh, TMEM33 / RFU, WDR75 / Fold change vs veh, WDR75 / RFU, AHCTF1 / Fold change vs veh, AHCTF1 / RFU, TFRC / Fold change vs veh, TFRC / RFU, ZDHHC17 / Fold change vs veh, ZDHHC17 / RFU, NOM1 / Fold change vs veh, NOM1 / RFU, ARL8B / Fold change vs veh, ARL8B / RFU, ZBTB11 / Fold change vs veh, ZBTB11 / RFU, TAMM41 / Fold change vs veh, TAMM41 / RFU, KIAA1704 /// LOC100996395 / Fold change vs veh, KIAA1704 /// LOC100996395 / RFU, ING1 / Fold change vs veh, ING1 / RFU, TRMT61B / Fold change vs veh, TRMT61B / RFU, FUBP3 / Fold change vs veh, FUBP3 / RFU, TP53 / Fold change vs veh, TP53 / RFU, TNKS2 / Fold change vs veh, TNKS2 / RFU, ZFP14 / Fold change vs veh, ZFP14 / RFU, ACTR2 / Fold change vs veh, ACTR2 / RFU, PPP3R1 / Fold change vs veh, PPP3R1 / RFU, PIK3R1 / Fold change vs veh, PIK3R1 / RFU, HNRNPA1 / Fold change vs veh, HNRNPA1 / RFU, RNF170 / Fold change vs veh, RNF170 / RFU, ZNF28 / Fold change vs veh, ZNF28 / RFU, RNGTT / Fold change vs veh, RNGTT / RFU, OGT / Fold change vs veh, OGT / RFU, BRD1 / Fold change vs veh, BRD1 / RFU, MARS / Fold change vs veh, MARS / RFU, ZNF655 / Fold change vs veh, ZNF655 / RFU, FAHD1 / Fold change vs veh, FAHD1 / RFU, BDP1 / Fold change vs veh, BDP1 / RFU, LRRCC1 / Fold change vs veh, LRRCC1 / RFU, ARID1A / Fold change vs veh, ARID1A / RFU, ZNF146 / Fold change vs veh, ZNF146 / RFU, ZNF330 / Fold change vs veh, ZNF330 / RFU, GPN3 / Fold change vs veh, GPN3 / RFU, C9orf123 / Fold change vs veh, C9orf123 / RFU, N4BP2L2 / Fold change vs veh, N4BP2L2 / RFU, ARFIP1 / Fold change vs veh, ARFIP1 / RFU, FAM179B / Fold change vs veh, FAM179B / RFU, BCL10 / Fold change vs veh, BCL10 / RFU, UHRF1BP1L / Fold change vs veh, UHRF1BP1L / RFU, BET1 / Fold change vs veh, BET1 / RFU, CNOT2 / Fold change vs veh, CNOT2 / RFU, ZNF268 / Fold change vs veh, ZNF268 / Fold change vs veh, ZNF507 / RFU, DGCR2 / Fold change vs veh, DGCR2 / RFU, WDSUB1 / Fold change vs veh, WDSUB1 / Fold change vs veh, HSP90B1 /// MIR3652 / RFU, ADSS / Fold change vs veh, ADSS / RFU, GK / Fold change vs veh, GK / RFU, ZNF148 / Fold change vs veh, ZNF148 / RFU, TAF9 / Fold change vs veh, TAF9 / RFU, SLC1A5 / Fold change vs veh, SLC1A5 / RFU, SLMO2 / Fold change vs veh, SLMO2 / RFU, ABCC4 / Fold change vs veh, ABCC4 / RFU, LOC101060439 /// RAP1B / Fold change vs veh, LOC101060439 /// RAP1B / RFU, RFX7 / Fold change vs veh, RFX7 / RFU, GTPBP10 / Fold change vs veh, GTPBP10 / RFU, CNEP1R1 / Fold change vs veh, CNEP1R1 / RFU, BIVM-ERCC5 /// ERCC5 / Fold change vs veh, BIVM-ERCC5 /// ERCC5 / RFU, ILF3 / Fold change vs veh, ILF3 / RFU 11762660_at / Fold change /veh 11762660_at / RFU VCAN (11757783_s_at) / Fold change /veh VCAN (11757783_s_at) / RFU DDX43 (11728927_at) / Fold change /veh DDX43 (11728927_at) / RFU KRT8 (11758188_x_at) / Fold change /veh KRT8 (11758188_x_at) / RFU NKD1 (11759106_at) / Fold change /veh NKD1 (11759106_at) / RFU SRD5A1 (11742802_a_at) / Fold change /veh SRD5A1 (11742802_a_at) / RFU TPSAB1 /// TPSB2 (11721975_s_at) / Fold change /veh TPSAB1 /// TPSB2 (11721975_s_at) / RFU GSTM3 (11746129_a_at) / Fold change /veh GSTM3 (11746129_a_at) / RFU IL23R (11737362_x_at) / Fold change /veh IL23R (11737362_x_at) / RFU TMEM51 (11727254_a_at) / Fold change /veh TMEM51 (11727254_a_at) / RFU PIWIL2 (11732686_x_at) / Fold change /veh PIWIL2 (11732686_x_at) / RFU ORM1 (11744905_x_at) / Fold change /veh ORM1 (11744905_x_at) / RFU CCDC152 (11743942_at) / Fold change /veh CCDC152 (11743942_at) / RFU ECM1 (11717891_a_at) / Fold change /veh ECM1 (11717891_a_at) / RFU IL23R (11748794_a_at) / Fold change /veh IL23R (11748794_a_at) / RFU TNFAIP8L3 (11732012_x_at) / Fold change /veh TNFAIP8L3 (11732012_x_at) / RFU MBOAT4 (11741988_at) / Fold change /veh MBOAT4 (11741988_at) / RFU 11764193_at / Fold change /veh 11764193_at / RFU TMEM53 (11763286_at) / Fold change /veh TMEM53 (11763286_at) / RFU MAGEB2 (11727129_at) / Fold change /veh MAGEB2 (11727129_at) / RFU TMEM200A (11744735_a_at) / Fold change /veh TMEM200A (11744735_a_at) / RFU CCDC152 (11751479_a_at) / Fold change /veh CCDC152 (11751479_a_at) / RFU FAM211A (11726209_a_at) / Fold change /veh FAM211A (11726209_a_at) / RFU RGS16 (11746705_a_at) / Fold change /veh RGS16 (11746705_a_at) / RFU VCAN (11755009_s_at) / Fold change /veh VCAN (11755009_s_at) / RFU RHOB (11743442_s_at) / Fold change /veh RHOB (11743442_s_at) / RFU RGS16 (11720943_a_at) / Fold change /veh RGS16 (11720943_a_at) / RFU RGS16 (11720944_at) / Fold change /veh RGS16 (11720944_at) / RFU, VPS4B / Fold change vs veh, VPS4B / RFU, CREB1 / Fold change vs veh, CREB1 / RFU, DNAJC13 / Fold change vs veh, DNAJC13 / RFU, GNAQ / Fold change vs veh, GNAQ / RFU, CDK5R1 / Fold change vs veh, CDK5R1 / RFU, ZRANB3 / Fold change vs veh, ZRANB3 / RFU, CUL4A / Fold change vs veh, CUL4A / RFU, CCNY / Fold change vs veh, CCNY / RFU, UFL1 / Fold change vs veh, UFL1 / RFU, COG3 / Fold change vs veh, COG3 / RFU, DIAPH2 / Fold change vs veh, DIAPH2 / RFU, SKA2 / Fold change vs veh, SKA2 / RFU, AFF3 / Fold change vs veh, AFF3 / RFU, LMF1 / Fold change vs veh, LMF1 / RFU, IPO11 / Fold change vs veh, IPO11 / RFU, DFFB / Fold change vs veh, DFFB / RFU, FOXP1 / Fold change vs veh, FOXP1 / RFU, CARD8 / Fold change vs veh, CARD8 / RFU, STRN3 / Fold change vs veh, STRN3 / RFU, ADK / Fold change vs veh, ADK / RFU, RASSF2 / Fold change vs veh, RASSF2 / RFU, WIPF1 / Fold change vs veh, WIPF1 / RFU, LARP1B / Fold change vs veh, LARP1B / RFU, RASA1 / Fold change vs veh, RASA1 / RFU, RB1 / Fold change vs veh, RB1 / RFU, PPFIA1 / Fold change vs veh, PPFIA1 / RFU, MAT2A / Fold change vs veh, MAT2A / RFU, CCT5 / Fold change vs veh, CCT5 / RFU, WDR92 / Fold change vs veh, WDR92 / RFU, CUX1 / Fold change vs veh, CUX1 / RFU, TTC7A / Fold change vs veh, TTC7A / RFU, TMEM135 / Fold change vs veh, TMEM135 / RFU, DEPTOR / Fold change vs veh, DEPTOR / RFU, CPM / Fold change vs veh, CPM / RFU, DNAJB6 / Fold change vs veh, DNAJB6 / RFU, CACNA2D3 / Fold change vs veh, CACNA2D3 / RFU, DTX4 / Fold change vs veh, DTX4 / RFU, TFCP2 / Fold change vs veh, TFCP2 / RFU, GMCL1 /// GMCL1P1 / Fold change vs veh, GMCL1 /// GMCL1P1 / RFU, AEBP2 / Fold change vs veh, AEBP2 / RFU, SNHG1 /// SNORD22 /// SNORD25 /// SNORD26 /// SNORD27 /// SNORD28 /// SNORD29 /// SNORD31 / Fold change vs veh, SNHG1 /// SNORD22 /// SNORD25 /// SNORD26 /// SNORD27 /// SNORD28 /// SNORD29 /// SNORD31 / Fold change (Aza/veh), C12orf56 (ProbeSet 11735607_a_at) / Fold change (ACY-1035/veh), C12orf56 (ProbeSet 11735607_a_at) / Fold change (Aza/veh), FGFR1OP (ProbeSet 11751329_s_at) / Fold change (ACY-1035/veh), FGFR1OP (ProbeSet 11751329_s_at) / Fold change (Aza/veh), VPS36 (ProbeSet 11739960_a_at) / Fold change (ACY-1035/veh), VPS36 (ProbeSet 11739960_a_at) / RFU SYPL1 (11715823_x_at) / Fold change /veh SYPL1 (11715823_x_at) / RFU IGFBP7 (11715501_s_at) / Fold change /veh IGFBP7 (11715501_s_at) / RFU REEP3 (11722064_at) / Fold change /veh REEP3 (11722064_at) / RFU IGLL1 (11728026_x_at) / Fold change /veh IGLL1 (11728026_x_at): dose or concentration left out as unconfirmed
Details: MV-4-11 cells, 48 hours

Nc1ccc(-c2cccs2)cc1NC(=O)c1ccc2c(c1)cc(C1CC1)n2CCN1CCOCC1 [ACY-1035]
RFU DDX43 (11728927_at): 10.07 RFU
